Laboratory results taken from patent US8211922B2, “1-methylnicotinamide derivatives and formulations for treatment of lipoprotein abnormalities” (Cortria Corporation, priority 2005, dated 2012).
Where “and” joins values, the source holds several entries; their conditions need not be identical. Identical values can stand only once.

Experiments:
dyslipidemic patients = experiment: Anti-atherogenic effect of MNA after long term use (13 months), plasma lipids in patients; type: in vivo, human; details: for HDL % / TG % / TG/HDL % / Total Cholesterol % / LDL %: change vs time 0
Method: The anti-atherogenic effect of MNA was investigated in 2 dyslipidemic patients. The enrollment criteria was: high level of TG (≧250 mg/dl) and/or high level of TC (≧200 mg/dl). The patients were treated with MNA for 13 months. The MNA was administered orally, two times a day (50 mg MNA) after meal.
The plasma levels of TC, TG, and HDL were measured at baseline and during the therapy. The level of LDL was measured in those cases where it was possible (due to high TG level).

[1] = tested on: dyslipidemic and cardiologic patients; experiment: Anti-atherogenic effect of MNA after short-term use (2 weeks), plasma lipids in patients; type: in vivo, human; details: for HDL change: after 2 weeks therapy
Method: The anti-atherogenic effect of MNA was investigated in […] dyslipidemic and cardiologic patients. The enrollment criteria was: high level of TG (˜250 mg/dl) and/or high level of total cholesterol (TC) (≧200 mg/dl). The mean age of the patients was 57.5 (range 37-81 years). The enrolled patients were divided into two groups: dyslipidemic patients (4 patients) and dyslipidemic patients after acute coronary failure (myocardial infarction) (12 patients). The patients were treated with MNA for 2 weeks. The MNA was administered orally, three times a day, one capsule (30 mg MNA) after meal. The 16 patients have finished clinical examination.
The plasma levels of TC, TG, and HDL were measured at baseline and after 2 weeks of therapy. The level of LDL was measured in those cases where it was possible (due to high TG level).
Patient nos. 1-4 were dyslipidemic. Patient nos. 5-16 were dyslipidemic patients after acute coronary failure (myocardial infarction).

[2] = 2 dyslipidemic patients, 50 mg MNA orally two times a day, 13 months
[3] = 30 mg MNA orally three times a day, after 2 weeks, individual patients
[4] = 30 mg MNA orally three times a day, after 2 weeks, individual patients nos. 1-16
[5] = change visit 2 vs visit 1, 30 mg MNA orally three times a day, 2 weeks, individual patients nos. 1-16
[6] = change visit 2 vs visit 1, 2 weeks, individual patients
[7] = mean of 16 patients, 30 mg MNA orally three times a day, after 2 weeks
[8] = mean of 16 patients, after 2 weeks
[9] = mean of 16 patients, change visit 2 vs visit 1, 2 weeks

For 1-methylnicotinamide chloride [MNA], the TC level (dyslipidemic patients; [2]) was “reduced significantly”, the TG level (dyslipidemic patients; [2]) was “reduced significantly” and the HDL levels (dyslipidemic patients; 2 dyslipidemic patients, after only a few months of therapy) was “increase”. For the same substance, the TG/HDL ratio (dyslipidemic patients; 2 dyslipidemic patients, long term use) was “reduction”, the TG (dyslipidemic patients; Patient 1, 50 mg MNA orally two times a day, 1.5 months) was 218 mg/dL and the TG (dyslipidemic patients; Patient 1, 50 mg MNA orally two times a day, 6 months) was 255 mg/dL. For the same substance, the TG (dyslipidemic patients; Patient 1, 50 mg MNA orally two times a day, 12 months) was 315 mg/dL, the HDL (dyslipidemic patients; Patient 1, 1.5 months) was 28.0 mg/dL and the LDL (dyslipidemic patients; Patient 1, 1.5 months) was 81.4 mg/dL. For the same substance, the TG/HDL (dyslipidemic patients; Patient 1, 1.5 months) was 7.79, the “Total Cholesterol” value (dyslipidemic patients; Patient 1, 1.5 months) was 153 mg/dL and the HDL (dyslipidemic patients; Patient 1, 6 months) was 38.6 mg/dL. The LDL (dyslipidemic patients; Patient 1, 6 months) was 87.0 mg/dL, the TG/HDL (dyslipidemic patients; Patient 1, 6 months) was 6.61 and the “Total Cholesterol” value (dyslipidemic patients; Patient 1, 6 months) was 177 mg/dL. It also gave an HDL (dyslipidemic patients; Patient 1, 12 months) of 48.1 mg/dL, an LDL (dyslipidemic patients; Patient 1, 12 months) of 118.0 mg/dL and a TG/HDL (dyslipidemic patients; Patient 1, 12 months) of 6.55. The “Total Cholesterol” value (dyslipidemic patients; Patient 1, 12 months) was 229 mg/dL, the HDL % (dyslipidemic patients; Patient 1, 1.5 months) was −8.79% and the TG % (dyslipidemic patients; Patient 1, 1.5 months) was −77.39%. The TG/HDL % (dyslipidemic patients; Patient 1, 1.5 months) was −75.21%, the “Total Cholesterol %” value (dyslipidemic patients; Patient 1, 1.5 months) was −48.66% and the HDL % (dyslipidemic patients; Patient 1, 6 months) was 25.73%. For the same substance, the TG % (dyslipidemic patients; Patient 1, 6 months) was −73.55%, the TG/HDL % (dyslipidemic patients; Patient 1, 6 months) was −78.96% and the “Total Cholesterol %” value (dyslipidemic patients; Patient 1, 6 months) was −40.60%. For the same substance, the HDL % (dyslipidemic patients; Patient 1, 12 months) was 56.68%, the TG % (dyslipidemic patients; Patient 1, 12 months) was −67.32% and the TG/HDL % (dyslipidemic patients; Patient 1, 12 months) was −79.14%. For the same substance, the “Total Cholesterol %” value (dyslipidemic patients; Patient 1, 12 months) was −23.15%, the TG (dyslipidemic patients; Patient 2, 50 mg MNA orally two times a day, 7 months) was 269 mg/dL and the TG (dyslipidemic patients; Patient 2, 50 mg MNA orally two times a day, 13 months) was 160 mg/dL. It also gave an HDL (dyslipidemic patients; Patient 2, 7 months) of 79.0 mg/dL, an LDL (dyslipidemic patients; Patient 2, 7 months) of 128.0 mg/dL and a TG/HDL (dyslipidemic patients; Patient 2, 7 months) of 3.41. The “Total Cholesterol” value (dyslipidemic patients; Patient 2, 7 months) was 261 mg/dL, the HDL (dyslipidemic patients; Patient 2, 13 months) was 70.8 mg/dL and the LDL (dyslipidemic patients; Patient 2, 13 months) was 106.8 mg/dL. For the same substance, the TG/HDL (dyslipidemic patients; Patient 2, 13 months) was 2.26, the “Total Cholesterol” value (dyslipidemic patients; Patient 2, 13 months) was 210 mg/dL and the HDL % (dyslipidemic patients; Patient 2, 7 months) was 79.55%. For the same substance, the LDL % (dyslipidemic patients; Patient 2, 7 months) was −53.11%, the TG % (dyslipidemic patients; Patient 2, 7 months) was −10.93% and the TG/HDL % (dyslipidemic patients; Patient 2, 7 months) was −50.39%. The “Total Cholesterol %” value (dyslipidemic patients; Patient 2, 7 months) was −28.49%, the HDL % (dyslipidemic patients; Patient 2, 13 months) was 60.91% and the LDL % (dyslipidemic patients; Patient 2, 13 months) was −60.88%. The TG % (dyslipidemic patients; Patient 2, 13 months) was −47.02%, the TG/HDL % (dyslipidemic patients; Patient 2, 13 months) was −67.07% and the “Total Cholesterol %” value (dyslipidemic patients; Patient 2, 13 months) was −42.47%. The “Glucose visit 2” value [1, 3] was 152 mg/dl and 81 mg/dl and 89 mg/dl (2×) and 90 mg/dl and 101 mg/dl and 129 mg/dl and 96 mg/dl (2×) and 82 mg/dl and 113 mg/dl and 128 mg/dl and 97 mg/dl and 111 mg/dl, the “LDL visit 2” value [1, 3] was 162 mg/dL and 171 mg/dL and 114 mg/dL and 82 mg/dL and 121 mg/dL and 111 mg/dL and 81 mg/dL and 149 mg/dL and 178 mg/dL and 148 mg/dL and the “Uric Acid visit 2” value [1, 3] was 7.2 mg/dL and 4.4 mg/dL and 8.9 mg/dL and 9.6 mg/dL and 6.6 mg/dL and 5.7 mg/dL and 5.3 mg/dL and 5.31 mg/dL and 5.26 mg/dL and 5.8 mg/dL and 7.33 mg/dL. For the same substance, the “HDL visit 2” value [1, 4] was 40 mg/dl and 41 mg/dl (2×) and 59 mg/dl and 31 mg/dl and 45 mg/dl (3×) and 46 mg/dl and 37 mg/dl and 36 mg/dl and 29 mg/dl and 38 mg/dl and 67 mg/dl and 72 mg/dl and 42 mg/dl, the “Total Cholesterol visit 2” value [1, 4] was 251 mg/dL and 260 mg/dL and 208 mg/dL and 155 mg/dL and 130 mg/dL and 203 mg/dL and 194 mg/dL and 159 mg/dL and 253 mg/dL and 271 mg/dL and 229 mg/dL and 146 mg/dL and 280 mg/dL and 188 mg/dL and 243 mg/dL and 231 mg/dL and the TG/HDL ratio ([1]; after 2 weeks therapy (baseline 9.60)) was 5.25. For the same substance, the HDL change ([1]; group of dyslipidemic patients) was “substantial increase”, the HDL change ([1]; group of dyslipidemic patients after acute coronary failure (myocardial infarction)) was “not observed” and the LDL % ([1]; change visit 2 vs visit 1, 30 mg MNA orally three times a day, 2 weeks, individual patients) was 18.25% and 23.91% and 107.27% and −40.58% and 0.83% and −23.97% and −35.71% and 14.62% and 78.00% and 12.98%. The HDL % [1, 5] was 11.11% and 7.89% and −1.67% and −8.82% and −25.45% and −18.18% and −8.00% and −15.91% and −14.29% (2×) and 9.76% and 0.00% and −22.45% and 31.37% and 36.36% and 71.43%, the “Total Cholesterol %” value [1, 5] was 5.91% and −5.11% and 8.33% and −38.74% and −43.97% and −17.14% and −24.51% and −31.17% and −4.17% and −12.58% and 3.62% and −39.67% and −6.98% and 2.73% and −17.06% and −4.94% and the Glucose % [1, 6] was −8.98% and 2.53% and 7.23% and −25.62% and 5.21% and 17.27% and −19.33% and 0.00% and 9.09% and 18.95% and 8.54% and −10.49% and −1.02% and 4.72%. For the same substance, the “Uric Acid %” value [1, 6] was −16.28% and 2.33% and −38.62% and 37.14% and 6.45% and 0.00% and −23.19% and 0.95% and −2.59% and −1.69% and 21.96%, the TG/HDL % ([1]; change visit 2 vs visit 1, 2 weeks, individual patients nos. 1-16) was −32.29% and −54.61% and −54.01% and −43.95% and −41.63% and −36.79% and −33.19% and −19.29% and −14.21% and −60.02% and −15.08% and −68.96% and −26.10% and −59.00% and −84.18% and −3.72% and the “TG visit 2, Mean Value” [1, 7] was 216 mg/dL and 216.31 mg/dL. For the same substance, the “Total Cholesterol visit 2, Mean Value” [1, 7] was 212 mg/dL and 212.56 mg/dL, the “HDL visit 2, Mean Value” [1, 8] was 44.63 mg/dL and the “TG/HDL visit 2, Mean Value” [1, 8] was 5.25. For the same substance, the “HDL %, Mean Value” [1, 9] was 0.85%, the “TG %, Mean Value” [1, 9] was −47.2% and −47.18% and the “TG/HDL %, Mean Value” [1, 9] was −45.32%. For the same substance, the “Total Cholesterol %, Mean Value” [1, 9] was −14.50%, the “LDL visit 2, Mean Value” ([1]; mean of patients with LDL measured, after 2 weeks) was 131.70 mg/dL and the “LDL %, Mean Value” ([1]; mean of patients with LDL measured, change visit 2 vs visit 1, 2 weeks) was 7.86%.
